# Experimental data published in patent publication US20230020329A1, “Annelated 9-hydroxy-1,8-dioxo-1,3,4,8-tetrahydro-2H-pyrido[1,2-a]pyrazine-7-carboxamides as HIV integrase inhibitors, methods of preparation and application thereof” (priority 2019, published 2023).
# System: HIV-1 (IIIB strain)
# Assay: Anti-HIV cytoprotection assay (XTT), HIV-1 IIIB in CEM-SS cells
# Format: cell-based
# Conditions: Human immunodeficiency virus 1, IIIB, CEM-SS, CEM-SS cell line; read-out: Inhibitory activity (EC50) against HIV-1 (IIIB strain)
# Excerpt: a) Inhibitory Activity of the Lymphocytropic Virus Strain HIV-1 (IIIB) in the CEM-SS Cell Line.
# The evaluation was done by ImQuest BioSciences, Inc. (Frederick, Md., USA). CEM-SS cells [Foley G. E. et al. Continuous Culture of Human Lymphoblasts from Peripheral Blood of a Child with Acute Leukemia. Cancer 1965, 18, 522-529] obtained through the NIH AIDS Research and Reference Reagent Program (Manassas, Va., USA) were passaged in T-75 flasks prior to use cell culture medium consisting of RPMI1640 medium (Lonza; Walkersville, Md., USA) supplemented with 10% heat inactivated fetal bovine serum (Gibco; Grand Island, N.Y.), […] L-glutamine (Lonza), […] penicillin (Lonza) and […] streptomycin (Lonza) for antiviral analysis. The CEM-SS cells were kept in RPMI 140 medium supplemented with 10% heat inactivated bovine fetal serum, 2 mM glutamine, 100 U/ml penicillin, and 100 μg/ml streptomycin.
# A lymphocytropic HIV-1 IIIB strain [Popovic, M. et al. Detection, isolation, and continuous production of cytopathic retroviruses (HTLV-III) from patients with AIDS and pre-AIDS. Science. 1984, 224 (4648), 497-500] was chosen for a virus to be analyzed. The virus was obtained through the NIH AIDS Research and Reference Reagents Program and grown in CEM-SS cells to produce a stock virus pool. A pre-titrated aliquot of the virus was removed from the freezer (−80° C.) and allowed to slowly thaw to room temperature in a biological safety cabinet. The virus was diluted in a tissue culture medium so that the amount of virus added in 50 μl per well was sufficient to kill 85 to 95% of the cells 6 days after infection. HIV-1 IIIB was grown and titrated in CEM-SS cells. The inhibitory effect of […] was evaluated in CEM-SS cells as described earlier [Nara, P. L. at al. Simple, rapid, quantitative, syncytium-forming microassay for the detection of human immunodeficiency virus neutralizing antibody. AIDS Res. Hum. Retroviruses 1987, 3, 283-302.] in microtiter plate anti-HIV assays to quantitatively assess the ability of a compound to inhibit HIV-induced cell death. Quantification was carried out using 2,3-bis-(2-methoxy-4-nitro-5-[…])-(2H)-tetrazolium-5-carboxanilide (XTT) tetrazolium, which is metabolized to a stained formazan product through viable […] The compounds given in Table 1 were dissolved at 10 μM in DMSO and stored at −20° C.
# Test materials were evaluated using antiviral assays in triplicate in concentrations of 30 and 10 nM. The compounds shown in table 1 were dissolved at 10 μM in DMSO and stored at −20° C. […] Sixty nanomolar concentrations of each compound (2 times that of the test concentration in the well) were prepared by diluting 10 μM DMSO stock 1:100 in cell culture medium (10 μl of compound added to 990 μl of the medium) followed by 1:10 dilution (10 μl of the compound was added to 90 μl of the medium), then 6 μl was added to 994 μl of the medium; […] μl was added to a 96-well microtiter plate in triplicate to ensure efficacy and one colorimetric well. Twenty nanomolar concentrations of each compound (twice as much as the test concentration in the well) were prepared by diluting 10 μM DMSO with the original 1:100 in cell culture medium (10 μl of the compound added to 990 μl of the medium) followed by diluting […] (10 μl of the compound was added to 900 μl of the medium), then 20 μl was added to 980 μl of the medium; 100 μl was added to a 96-well microtiter plate in triplicate to ensure efficacy and one colorimetric well.
# Azidothymidine (AZT) was purchased from Sigma Aldrich (USA) and evaluated as a positive control compound in an antiviral assay using a six-concentration reaction curve on each assay plate.
# Test compounds were initially evaluated for HIV-1 IIIB strain in CEM-SS cells at test concentrations of 30 and 10 nM. […]
row,Structure (SMILES),EC50 [nM]
1,"Cc1ccc2[nH]c(CNC(=O)c3cn4c(c(O)c3=O)C(=O)N3[C@@H](C)CO[C@@H]3C4)nc2c1 [Compound 1.1.40, (3S,11aR)-6-hydroxy-3-methyl-N-[(5-methyl-1H-benzimidazol-2-yl)methyl]-5,7-dioxo-2,3,5,7,11,11a-hexahydro[1,3]oxazolo[3,2-a]pyrido[1,2-d]pyrazine-8-carboxamide]",> 30
2,"C[C@H]1CO[C@@H]2Cn3cc(C(=O)NCc4nc5c(s4)CCCCC5)c(=O)c(O)c3C(=O)N12 [Compound 1.1.63, (3S,11aR)-6-hydroxy-3-methyl-5,7-dioxo-N-(5,6,7,8-tetrahydro-4H-cyclohepta[d][1,3]thiazol-2-ylmethyl)-2,3,5,7,11,11a-hexahydro[1,3]oxazolo[3,2-a]pyrido[1,2-d]pyrazine-8-carboxamide]",> 30
3,"CCn1nc(C)c(CNC(=O)c2cn3c(c(O)c2=O)C(=O)N2[C@@H](C)CO[C@@H]2C3)c1C [Compound 1.1.6, (3S,11aR)-6-hydroxy-N-[(1-ethyl-3,5-dimethyl-1H-pyrazol-4-yl)methyl]3-methyl-5,7-dioxo-2,3,5,7,11,11a-hexahydro[1,3]oxazolo[3,2-a]pyrido[1,2-d]pyrazine-8-carboxamide]",10 to 30
4,"C[C@@H]1CO[C@@]23CCC[C@@H]2n2cc(C(=O)NCc4c(F)cncc4F)c(=O)c(O)c2C(=O)N13 [Compound 2.1.2, (3aS,6R,13aS)-9-hydroxy-N-[(3,5-difluoropyridin-4-yl)methyl]-6-methyl-8,10-dioxo-1,2,3,5,6,8,10,13a-octahydrocyclopenta[b][1,3]oxazolo[3,2-a]pyrido[1,2-d]pyrazine-11-carboxamide]",2 to 10
5,"C[C@H]1CO[C@@H]2Cn3cc(C(=O)NCc4ccc5sccc5c4)c(=O)c(O)c3C(=O)N12 [Compound 1.1.31, (3S,11aR)-N-(1-benzothien-5-ylmethyl)-6-hydroxy-3-methyl-5,7-dioxo-2,3,5,7,11,11a-hexahydro[1,3]oxazolo[3,2-a]pyrido[1,2-d]pyrazine-8-carboxamide]",2 to 10
6,"C[C@H]1CO[C@@H]2Cn3cc(C(=O)NCc4nc5ccc(Cl)cc5n4C)c(=O)c(O)c3C(=O)N12 [Compound 1.1.43, (3S,11aR)-6-hydroxy-3-methyl-N-[(1-methyl-6-chlorobenzimidazol-2-yl)methyl]-5,7-dioxo-2,3,5,7,11,11a-hexahydro[1,3]oxazolo[3,2-a]pyrido[1,2-d]pyrazine-8-carboxamide]",> 30
7,"Cc1ccc(CNC(=O)c2cn3c(c(O)c2=O)C(=O)N2[C@@H](C)CO[C@@H]2C3)o1 [Compound 1.1.3, (3S,11aR)-6-hydroxy-3-methyl-N-[(5-methyl-2-furyl)methyl]-5,7-dioxo-2,3,5,7,11,11a-hexahydro[1,3]oxazolo[3,2-a]pyrido[1,2-d]pyrazine-8-carboxamide]",2 to 10
8,"C[C@H]1CO[C@@H]2Cn3cc(C(=O)NCc4cnc5ccccn45)c(=O)c(O)c3C(=O)N12 [Compound 1.1.56, (3S,11aR)-6-hydroxy-N-(imidazo[1,2-a]pyridin-3-ylmethyl)-3-methyl-5,7-dioxo-2,3,5,7,11,11a-hexahydro[1,3]oxazolo[3,2-a]pyrido[1,2-d]pyrazine-8-carboxamide]",> 30
9,"Cc1nc2cc(CNC(=O)c3cn4c(c(O)c3=O)C(=O)N3[C@@H](C)CO[C@@H]3C4)ccc2n1C [Compound 1.1.64, (3S,11aR)-6-hydroxy-3-methyl-N-[(1,2-dimethyl-1H-benzimidazol-5-yl)methyl]-5,7-dioxo-2,3,5,7,11,11a-hexahydro[1,3]oxazolo[3,2-a]pyrido[1,2-d]pyrazine-8-carboxamide]",> 30
10,"C[C@H]1CO[C@@H]2Cn3cc(C(=O)NCc4cnccn4)c(=O)c(O)c3C(=O)N12 [Compound 1.1.27, (3S,11aR)-6-hydroxy-3-methyl-N-(pyrazin-2-ylmethyl)-5,7-dioxo-2,3,5,7,11,11a-hexahydro[1,3]oxazolo[3,2-a]pyrido[1,2-d]pyrazine-8-carboxamide]",> 30
11,"C[C@H]1CO[C@@H]2Cn3cc(C(=O)NCc4ccccn4)c(=O)c(O)c3C(=O)N12 [Compound 1.1.15, (3S,11aR)-6-hydroxy-3-methyl-N-(pyridyl-2-ylmethyl)-5,7-dioxo-2,3,5,7,11,11a-hexahydro[1,3]oxazolo[3,2-a]pyrido[1,2-d]pyrazine-8-carboxamide]",10 to 30
12,"O=C(NCc1c(F)cncc1F)c1cn2c(c(O)c1=O)C(=O)N1[C@H]3CC[C@H](C3)O[C@@H]1C2 [Compound 1.3.3, (2R,5S,13aR)-8-hydroxy-N-[(3,5-difluoropyridin-4-yl)methyl]-7,9-dioxo-2,3,4,5,7,9,13,13a-octahydro-2,5-methanopyrido[1′,2′:4,5]pyrazino[2,1-b][1,3]oxazepine-10-carboxamide]",2 to 10
13,"Cc1nn2cc(CNC(=O)c3cn4c(c(O)c3=O)C(=O)N3[C@@H](C)CO[C@@H]3C4)nc2s1 [Compound 1.1.30, (3S,11aR)-6-hydroxy-3-methyl-N-[(2-methylimidazo[2,1-b][1,3,4]thiadiazol-6-yl)methyl]-5,7-dioxo-2,3,5,7,11,11a-hexahydro[1,3]oxazolo[3,2-a]pyrido[1,2-d]pyrazine-8-carboxamide]",> 30
14,"C[C@H]1CO[C@@H]2Cn3cc(C(=O)NCc4ccc5c(c4)OCO5)c(=O)c(O)c3C(=O)N12 [Compound 1.1.34, (3S,11aR)-N-(1,3-benzodioxol-5-ylmethyl)-6-hydroxy-3-methyl-5,7-dioxo-2,3,5,7,11,11a-hexahydro[1,3]oxazolo[3,2-a]pyrido[1,2-d]pyrazine-8-carboxamide]",2 to 10
15,"C[C@@H]1CO[C@@]23CCC[C@@H]2n2cc(C(=O)NCc4c(F)cc(F)nc4F)c(=O)c(O)c2C(=O)N13 [Compound 2.1.3, (3aS,6R,13aS)-9-hydroxy-6-methyl-N-[(2,4,6-trifluoropyridin-3-yl)methyl]-8,10-dioxo-1,2,3,5,6,8,10,13a-octahydrocyclopenta[b][1,3]oxazolo[3,2-a]pyrido[1,2-d]pyrazine-11-carboxamide]",2 to 10
16,"C[C@@H]1CCO[C@H]2Cn3cc(C(=O)NCc4c(F)cncc4F)c(=O)c(O)c3C(=O)N12 [Compound 1.2.4, (4R,12aS)-7-hydroxy-N-[(3,5-difluoropyridin-4-yl)methyl]-4-methyl-6,8-dioxo-3,4,6,8,12,12a-hexahydro-2H-pyrido[1′,2′:4,5]pyrazino[2,1-b][1,3]oxazine-9-carboxamide]",2 to 10
17,"C[C@H]1CO[C@@H]2Cn3cc(C(=O)NCc4cn5cc(Cl)sc5n4)c(=O)c(O)c3C(=O)N12 [Compound 1.1.28, (3S,11aR)-6-hydroxy-3-methyl-N-[(2-chloroimidazo[2,1-b][1,3]thiazol-6-yl)methyl]-5,7-dioxo-2,3,5,7,11,11a-hexahydro[1,3]oxazolo[3,2-a]pyrido[1,2-d]pyrazine-8-carboxamide]",> 30
18,"C[C@H]1CO[C@@H]2Cn3cc(C(=O)NCc4cnc5ccccc5c4)c(=O)c(O)c3C(=O)N12 [Compound 1.1.50, (3S,11aR)-6-hydroxy-3-methyl-N-(quinolin-3-ylmethyl)-5,7-dioxo-2,3,5,7,11,11a-hexahydro[1,3]oxazolo[3,2-a]pyrido[1,2-d]pyrazine-8-carboxamide]",2 to 10
19,"C[C@H]1CO[C@@H]2Cn3cc(C(=O)NCc4nc5ccccc5n4C)c(=O)c(O)c3C(=O)N12 [Compound 1.1.42, (3S,11aR)-6-hydroxy-3-methyl-N-[(1-methyl-benzimidazol-2-yl)methyl]-5,7-dioxo-2,3,5,7,11,11a-hexahydro[1,3]oxazolo[3,2-a]pyrido[1,2-d]pyrazine-8-carboxamide]",> 30
